In experiment [1] the test system is Capan-1 BRCA2 mutant human pancreatic cell line. The experiment is described as follows: CellTiter-Glo (CTG) cell growth inhibition, Capan-1. The settings on record: Capan-1 cells; for IC50: Homo sapiens, 312 h. It is filed as cell-based. The source says:
(§1) A549 human lung carcinoma cell line, UWB1.289 BRCA1 mutant human ovarian cancer cell line, and UWB1.289+BRCA1 stable cell line derived from UWB1.289, in which wild-type BRCA1 was restored, were obtained from the American Type Culture Collection (ATCC). Capan-1 BRCA2 mutant human pancreatic cell line was obtained from the Duke Cell Culture Facility (Duke University, Durham, NC). HCC1937 BRCA1 mutant breast cancer cell line was obtained from Simon Powell (Memorial-Sloan Kettering, NY, NY). All cell lines were authenticated by short tandem repeat profiling and tested negative for mycoplasma. A549 cells were cultured in RPMI 1640 medium (Gibco), supplemented with 10% fetal bovine serum (FBS) (Corning) and 1× Antibiotic-Antimycotic (A-A) (Gibco). Capan-1 cells were grown in Iscove's Modified Dulbecco's Medium (IMDM) (Gibco), 20% FBS and 1×A-A. HCC1937 cells were grown in Iscove's Modified Dulbecco's Medium, 15% serum, and L-glutamine (2 mM). UWB1.289 and UWB1.289+BRCA1 cells were grown in 50% RPMI 1640 supplemented with 1 mM Sodium Pyruvate, 10 mM HEPES and 4500 mg/L glucose and 50% Mammary Epithelial Growth Medium (MEGM) (Clonetics) with 200 ug/ml G-418 (Gibco) and supplemented with 3% FBS and 1×A-A. All cell lines were grown at 37° C. in 5% CO2. Cell growth inhibition was determined via the CellTiter-Glo (CTG) assay (Promega). […] HCC1937 and UWB1.289 cells were treated with increasing concentrations of Compound A, niraparib, or the combination for 7 days.
On the technique in general: In ATP-based viability assays light output follows the ATP content of the culture.

The subject of experiment [2] is A549 human lung carcinoma cell line, BRCA2 knockdown (shBRCA2). The experiment in a line: Clonogenic survival assay, A549 with shBRCA2. It is filed as cell-based. The settings on record: A549 cells with BRCA2 knockdown, Compound A at 250, 500 or 1000 nM, 8 days. The source says: (§2) A549 human lung carcinoma cell line, UWB1.289 BRCA1 mutant human ovarian cancer cell line, and UWB1.289+BRCA1 stable cell line derived from UWB1.289, in which wild-type BRCA1 was restored, were obtained from the American Type Culture Collection (ATCC). Capan-1 BRCA2 mutant human pancreatic cell line was obtained from the Duke Cell Culture Facility (Duke University, Durham, NC). HCC1937 BRCA1 mutant breast cancer cell line was obtained from Simon Powell (Memorial-Sloan Kettering, NY, NY). All cell lines were authenticated by short tandem repeat profiling and tested negative for mycoplasma. A549 cells were cultured in RPMI 1640 medium (Gibco), supplemented with 10% fetal bovine serum (FBS) (Corning) and 1× Antibiotic-Antimycotic (A-A) (Gibco). Capan-1 cells were grown in Iscove's Modified Dulbecco's Medium (IMDM) (Gibco), 20% FBS and 1×A-A. HCC1937 cells were grown in Iscove's Modified Dulbecco's Medium, 15% serum, and L-glutamine (2 mM). […]
(§3) UWB1.289 and UWB1.289+BRCA1 cells were plated in 6-well plates at 1000 cells/well and treated with DMSO or Compound A at 250, 500 or 1000 nM for 8 days before colonies were counted. For shRNA experiments, A549 cells were treated with DMSO or Compound A at 250, 500 or 1000 nM following transduction of control shRNA or shBRCA2 for 8 days before colonies were counted. […]

The subject of experiment [3] is UWB1.289+BRCA1 stable cell line (wild-type BRCA1 restored). The experiment is described as follows: Clonogenic survival assay, UWB1.289+BRCA1. Format: cell-based, human. The settings on record: UWB1.289+BRCA1 cells, Compound A at 250, 500 or 1000 nM, 8 days.
Text: as §2, §3

The subject of experiment [4] is UWB1.289 BRCA1 mutant human ovarian cancer cell line. The experiment in a line: Clonogenic survival assay, UWB1.289. It is filed as cell-based. Conditions: UWB1.289 cells, Compound A at 250, 500 or 1000 nM, 8 days.
Text: as §2, §3

The subject of experiment [5] is UWB1.289+BRCA1 stable cell line (wild-type BRCA1 restored). The experiment is described as follows: CellTiter-Glo (CTG) cell growth inhibition, UWB1.289+BRCA1. The settings on record: for IC50: Homo sapiens, UWB1289, UWB1.289 + BRCA1 cells. Format: cell-based, human.
Text: as §1

In experiment [6] the test system is HCC1937 BRCA1 mutant breast cancer cell line. The experiment is described as follows: CellTiter-Glo (CTG) cell growth inhibition, HCC1937. It is filed as cell-based, human. Conditions: HCC1937 cells; for IC50: Homo sapiens, 168 h.
Text: as §1

The subject of experiment [7] is UWB1.289 BRCA1 mutant human ovarian cancer cell line. The experiment in a line: CellTiter-Glo (CTG) cell growth inhibition, UWB1.289. Format: cell-based. The settings on record: UWB1.289 cells; for IC50: Homo sapiens.
Text: as §1

[8] abbreviates: Compound A in combination with niraparib, 7 days.

Read-outs that look alike come from different tables or passages of the source. Where only a bound is given, the exact number is not on record here.

For the compound `CC(C)NCCOc1ncc(-c2cc3c4c(cnc3cc2F)N(C)C(=O)C42CCC2)cc1NS(C)(=O)=O` [Compound A], the “CI50 (combination index, method of Chou)” value in experiment [1] (Compound A in combination with niraparib, 13 days) turned out to be 0.5; in experiment [6] (setting [8]) it was 0.3; in experiment [7] (setting [8]), 0.4. Moreover, the IC50 (commonly the concentration that gives 50% inhibition) turned out to be 0.81 ± 0.08 µM in experiment [1] (single agent, 13 days, CTG, read-out: Single Agent IC50 (mean ± SEM) Compound A); 0.8 ± 0.01 µM in experiment [5] (single agent, CTG, read-out: Single Agent IC50 (mean ± SEM) Compound A); 1 ± 0.17 µM in experiment [6] (single agent, 7 days, CTG, read-out: Single Agent IC50 (mean ± SEM) Compound A); 0.26 ± 0.1 µM in experiment [7] (UWB1289, 168 h, single agent, 7 days, CTG, read-out: Single Agent IC50 (mean ± SEM) Compound A). The clonogenic survival result in experiment [2] is given as “dose-dependent decrease in survival”; in experiment [3], “rescued with re-expression of wild-type BRCA1”; in experiment [4], “exhibited sensitivity to Compound A”.
For the compound `NC(=O)c1cccc2cn(-c3ccc([C@@H]4CCCNC4)cc3)nc12` [Niraparib, niraparib], the “shift of the dose response curve of niraparib” value is listed as -5 fold in experiment [1] (addition of 0.5 μM Compound A); 10 fold in experiment [5] (UWB1.289+BRCA1 cells, 0.25 μM Compound A for 3 days of a 7-day treatment with niraparib); 10 fold in experiment [6] (addition of 0.25 μM Compound A); over 23 fold in experiment [7] (0.25 μM Compound A for 3 days of a 7-day treatment with niraparib). Further, the concentration for half-maximal inhibition (IC50) in experiment [1] (0.5 μM Compound A + increasing concentrations of niraparib for 13 days, read-out: IC50 + 0.5 μM Compound A (mean ± SEM) Niraparib) was 0.11 ± 0.01 µM; in experiment [1] (single agent, 13 days, CTG, read-out: Single Agent IC50 (mean ± SEM) Niraparib), 0.55 ± 0.05 µM; in experiment [5] (0.25 μM Compound A + niraparib for 3 days, then niraparib alone for additional 4 days, read-out: IC50 + 0.25 μM Compound A (mean ± SEM) Niraparib), 0.14 ± 0.02 µM; in experiment [5] (single agent, CTG, read-out: Single Agent IC50 (mean ± SEM) Niraparib), 1.4 ± 0.11 µM; in experiment [6] (0.25 μM Compound A + increasing concentrations of niraparib for 7 days, read-out: IC50 + 0.25 μM Compound A (mean ± SEM) Niraparib), 0.38 ± 0.18 µM; in experiment [6] (single agent, 7 days, CTG, read-out: Single Agent IC50 (mean ± SEM) Niraparib) it was 3.7 ± 0.27 µM. Besides, the IC50 in experiment [7] (UWB1289, 168 h, single agent, 7 days, CTG, read-out: Single Agent IC50 (mean ± SEM) Niraparib) is 0.33 ± 0.09 µM; in experiment [7] (UWB1289, 0.25 μM Compound A + niraparib for 3 days, then niraparib alone for additional 4 days, read-out: IC50 + 0.25 μM Compound A (mean ± SEM) Niraparib), under 0.014 µM.

The record behind these values is US20260240834A1, “METHODS OF TREATING CANCER” (XRad Holding Cayman Limited, priority 2023, published 2026).
